Test results from patent US20210392882A1, “METHODS AND COMPOSITIONS FOR IMPROVED INSECT REPELLENCY” (Board of Trustees of Michigan State University, priority 2020, published 2021).

Columns and labels:
[1] = tested on: Ae. aegypti mosquitoes; assay: Hand-in-cage spatial repellency assay; type: in vivo, Aedes aegypti
From the text: The hand-in-cage assay employed was similar to the hand-in-glove assay described by Boyle et al. (bioRxiv, 060178 (2016)). The setup for the hand-in-cage assay includes a 30 cm×30 cm×30 cm mosquito cage (BioQuip, Rancho Dominguea, Calif.), with a mounted digital camera and a human hand in a modified glove with a screened window. The digital camera (e-con Systems Inc, San Jose, Calif., model: e-CAM51A) for video recording is mounted on the cage top and connected to a laptop computer. A nitrile rubber glove (Ansell Protective Products, Coshoton, Ohio, part number: 37-155) was cut on the back side of the glove to create a window (6 cm×5 cm) (FIG. 1A). A piece of magnetic frame (slightly larger than the dimension of the window) was glued onto the cut window which was used as a base for stacking more magnetic window frames (FIG. 1A; further explained below). One piece of test compound-treated polyester netting (Shason Textile Inc., part number: WS-B532-111, white; slightly larger than the dimension of the window) was placed on this fixed magnetic frame, which was ˜3.0 mm above the glove. The second piece of the netting was untreated and placed ˜6.0 mm above the treated net using a stack of four magnetic frames. The stacked magnetic frames were further secured with a binder clip. The stacking creates sufficient space between the treated net and the untreated net so that mosquitoes that land on the open window were not able to contact treated net, or to contact and pierce skin of a hand in the glove. The hand makes no contact with the treated net.
The assay was run in a room with humidity between around 50% and temperature between 27° C. to 30° C. Twenty-four hours before an assay, four to nine days-old females (about 40, mated, non-blood fed) were transferred into a mosquito cage. The cage was kept in an incubator where mosquitoes were provided only with water in a cotton ball placed on the top of the cage. Immediately before the assay, one researcher treated pieces of netting with 500 μl test compound dissolved in acetone in a glass Petri dish in an adjacent room. Acetone served a control. After letting acetone evaporate (˜7 min), the researcher assembled and put on a modified glove. In the meantime, a second researcher or a lab assistant transferred the prepared cage from the incubator to a bench in the assay room. Both personnel avoided use of any hand lotions and cosmetic products before an assay and wore white lab coats and gloves during the assay. The hand with the modified glove was introduced into the cage to initiate the assay. Mosquitoes landing on the test window was recorded by the digital camera for five minutes. The number of mosquitoes landing during the second to fifth minutes was counted and recorded. For each cage, solvent (acetone) control was tested first and then followed with a treatment. Data from any cage that gave a low landing number in a control trial were discarded. The time interval of assays between control and treatment was at least 1.5 hours, allowing the mosquitoes to fully recover and residual vapors from experiments to be ventilated out of the room. Percentage repellency was determined for each cage using the following equation:
Percentage repellency=[1−(cumulative number of mosquitoes landed on the window of treatment/cumulative number of mosquitoes landed on the window of solvent treatment)]×100).
The spatial repellency of pyrethrum was examined using a hand-in-cage assay (Ogoma et al. PLoS neglected tropical diseases 11, e0005455 (2017)). In this behavioral assay, mosquitoes were attracted to a human hand in a modified glove (FIG. 1A) with a screened window on the back of the glove. The mosquitoes landed on a piece of control mesh secured on the top of the window. Between the control mesh and the hand is another mesh treated with a test compound, with which mosquitoes cannot make direct contact (FIG. 1A).

[2] = tested on: sst-1 sensilla (sst-1A and sst-1B neurons); assay: Single sensillum recording (SSR) of antennal sst-1 sensilla; type: cell-based, Aedes aegypti; conditions: wild-type ROCK; pyrethrum at 10^−2
Method: Single sensilla recording was conducted as described in Liu et al. J Insect Physiol 59, 1169-1177 (2013). Female mosquitoes 4 days after eclosion were anaesthetized (2-3 min on ice) and mounted on a microscope slide (76×26 mm). An antenna was fixed using a double-sided tape to a cover slip resting on a small ball of dental wax to facilitate manipulation. The cover slip was placed at an appropriate angle to the mosquito head. Once mounted, the specimen was placed under a microscope (Nikon SMA645, Japan) and the antenna viewed at a high magnification (1000×). Two tungsten microelectrodes were sharpened in 10% KNO2 at 2-10 V. The reference electrode, which was connected to ground, was inserted into the compound eye of the mosquito and the other was connected to the preamplifier (10×, Syntech, Kirchzarten, Germany) and inserted into the shaft of an olfactory sensillum to complete the electrical circuit to extracellularly record olfactory receptor neuron potentials (Den Otter et al., Journal of Insect Physiology 26, 465-472 (1980)). Controlled manipulation of the electrodes was performed using a micromanipulator (Burleigh PCS-6000, CA). The preamplifier was connected to an analog-to-digital signal converter (IDAC-4, Syntech, Germany), which in turn was connected to a computer for signal recording and visualization. The activity of co-located olfactory receptor neurons in each sensillum was assessed based on the differences in spike amplitude. The large spike amplitude was designated as cell A and the olfactory receptor neuron with the small spike amplitude was designated cell B (Ghaninia et al. Eur J Neurosci 26, 1611-1623 (2007)). Signals were recorded for 10 seconds starting 1 second before stimulation, and the action potentials were counted off-line over a 500-ms period before and after stimulation. The spontaneous firing rates observed in the preceding 500 milliseconds (ms) were subtracted from the total spike rates observed during the 500-ms stimulation, and counts were recorded in units of spikes/second.
Eighteen compounds besides pyrethrum from different chemical classes were selected for functional classification of olfactory sensilla with various morphological shapes (Extended Data FIG. 2). Each compound was diluted in dimethyl sulfoxide (DMSO) to a stock solution with a concentration of 100 μg/μl. Subsequently, a series of 10-fold dilutions were made from each of the stock solutions for each compound tested. For each dilution, a 10 μl portion was dispersed onto a filter paper strip (4×10 mm), which was then inserted into a Pasteur pipette to create the stimulus cartridge. A sample containing the solvent alone served as control. The airflow across the antennae was maintained constant at a 20 ml/second throughout the experiment. Purified and humidified air was delivered to the preparation through a glass tube (10-mm inner diameter) perforated by a small hole 10 cm away from the end of the tube, into which the tip of the Pasteur pipette could be inserted. The stimulus was delivered to the sensilla by inserting the tip of the stimulus cartridge into this hole and diverting a portion of the air stream (0.5 l/min) to flow through the stimulus cartridge for 500 ms using a stimulus controller (Syntech, Germany). The distance between the end of the glass tube and the antennae was ≤1 cm. The number of spikes/second was obtained by averaging the results for each sensillum/compound combination.
To identify which mosquito olfactory receptor neuron(s) responds to pyrethrum, single sensillum recordings (SSR) were performed of Ae. aegypti antennal olfactory sensilla in response to a panel of odorants (FIG. 2C-2L), most of which are plant-derived mosquito repellents, such as pyrethrum, (±)-citronellal, geranyl acetate and (−)-borneol. Three responsive sst sensilla were identified, sst1-3, and six responsive sbt sensilla, sbt1-6, based on their response profiles to the odorants in the panel (FIG. 2B, 2D-2L).

`CC1(C)C2CCC1(C)C(O)C2` (single isomer, unassigned; (-)) [(−)-borneol] was tested, and the “repellency, Orlando vs orco−/−” value ([1]; 10^−2 dilution, FIG. 4I) was “Orco-mediated”, the “effect of (E)-β-farnesene on repellency of the compound” value ([1]; EBF 4 ppm, P-I 1000 ppm, P-II 1000 ppm, (−)-borneol 100 ppm, ROCK, FIG. 4D) was “No enhancement” and the “response of sst-1A neuron” value [2] was “activates”.
